Measured values as given in patent publication US10150772B2, “Crystalline forms of PARP inhibitors” (priority 2014, dated 2018).
Entries after “also recorded” stand apart in the source; their conditions may differ. Where a name gives a salt, the structure may show the parent alone. Read-outs that look alike come from different tables or passages of the source.

What was measured:
[1] = Dynamic vapor sorption (DVS), water sorption; type: physicochemical
Experimental: Dynamic Vapor Sorption (DVS):
DVS experiments have been carried out using the DVS-HT instrument (Surface Measurement Systems, London, UK). This instrument measures the uptake and loss of vapor gravimetrically using a recording ultra-microbalance with a mass resolution of ±0.1 μg. The vapor partial pressure (±1.0%) around the sample is controlled by mixing saturated and dry carrier gas streams using electronic mass flow controllers. The desired temperature is maintained at ±0.1° C. The samples (1-10 mg) were placed into the DVS-HT and DVS-1 instruments at the desired temperature.
The sample was loaded and unloaded at 40% RH and 25° C. (typical room conditions). A moisture sorption isotherm was performed as outlined below (2 scans giving 1 complete cycle). The software uses a least squares minimization procedure together with a model of the mass relaxation, to predict an asymptotic value. The measured mass equilibration value must be within 2% of that predicted by the software before proceeding to the next % RH value. The minimum equilibration time was set to 1 hour and the maximum to 4 hours.

[2] = type: physicochemical
Experimental: Identity, Assay, and Purity by HPLC
Testing was performed on a calibrated and validated Agilent 1200 Rapid Resolution High Performance Liquid Chromatography (HPLC) system designated LC-0430-AD or LC-418-1D. The system comprises a binary SL pump, degasser, high performance autosampler SL with a fraction collector, thermostated column compartment with a 2 valve column switcher, and a DAD SL detector. All standard solutions and samples were prepared in Class A glass volumetric flasks and were placed in autosampler vials. Standard weighings were done using a calibrated Mettler analytical balance. The sample preparations were centrifuged using an Eppendorf microcentrifuge. The primary chromatography data was acquired and integrated using Empower 2 software. Microsoft Office Excel 2003 was used for the calculation of results.
Solid State Stability of Salts at 40° C. and 75% Humidity:
Samples of the form to be studied (15-20 mg) were weighed into standard 1.5 mL HPLC vials (32×11.6 mm) and stored uncapped for 0, 7, 14 and 28 days in a 40° C. and 75% RH stability chamber. Samples were removed on the indicated day and capped. Measurements of XRPD, DSC, TGA and HPLC Identity by Purity and Assay measurements were completed on each time point sample.

[3] = Estimation of water solubility; type: physicochemical
Experimental: Estimation of Water Solubility: Ten mg portions of the salt forms to be studied were weighed into a standard 1.5 mL HPLC vial (32×11.6 mm). […] An estimation of solubility was based on the volume of water necessary to dissolve the known weight of sample.

[4] = initial, before 40° C. and 75% RH stability testing
[5] = 40° C. and 75% RH, day 14, HPLC
[6] = 40° C. and 75% RH, day 28, HPLC

COc1cccc2[nH]c3c4c(c5c(c3c12)C(=O)N(CN1CCN(C)CC1)C5=O)CCC4.O=C(O)C[C@H](O)C(=O)O [L-malate (2 Eq.)]
DVS ([1]; water sorption reversible or irreversible): Irreversible
COMPOUND B After 40/75 ([2]; after 40° C. and 75% RH stability testing): 1.2%
COMPOUND A Initial [2, 4]: 71.3%
COMPOUND B Initial [2, 4]: 0.2%
TGA ([2]; initial, comparison of salts): 0.1%
Est. Water Solubility [3]: >100 mg/mL

COc1cccc2[nH]c3c4c(c5c(c3c12)C(=O)N(CN1CCN(C)CC1)C5=O)CCC4 [Glycolate Salt Hydrate, Form A1]
DVS sorption behaviour (in words) ([1]; DVS, 25° C.): surface adsorption with limited bulk absorption throughout the entire RH range
Total uptake in moisture at 90% RH ([1]; DVS, 25° C., 90% RH): ~3.5%
Stability to the test conditions (in words) ([2]; 40° C. and 75% RH, 28 day test period): fairly stable to the test conditions; also recorded: generated the least amount of Compound B
HPLC Purity ([2]; 40° C. and 75% RH, day 0): 99.8%
TGA ([2]; 40° C. and 75% RH, day 0): 2.1%
COMPOUND A Assay ([2]; 40° C. and 75% RH, day 0, HPLC): 69.9%
COMPOUND B Assay ([2]; 40° C. and 75% RH, day 0, HPLC): 0.1%
HPLC Purity ([2]; 40° C. and 75% RH, day 7): 99.6%
TGA ([2]; 40° C. and 75% RH, day 7): 2.3%
XRPD ([2]; 40° C. and 75% RH, day 7): No change
COMPOUND A Assay ([2]; 40° C. and 75% RH, day 7, HPLC): 68.4%
COMPOUND B Assay ([2]; 40° C. and 75% RH, day 7, HPLC): 0.1%
HPLC Purity ([2]; 40° C. and 75% RH, day 14): 99.7%
TGA ([2]; 40° C. and 75% RH, day 14): 2.6%
XRPD ([2]; 40° C. and 75% RH, day 14): No change
COMPOUND A Assay [2, 5]: 73.2%
COMPOUND B Assay [2, 5]: 0.2%
HPLC Purity ([2]; 40° C. and 75% RH, day 28): 99.5%
TGA ([2]; 40° C. and 75% RH, day 28): 3.5%
XRPD ([2]; 40° C. and 75% RH, day 28): No change
COMPOUND A Assay [2, 6]: 66.8%
COMPOUND B Assay [2, 6]: 0.6%
